Experimental data published in US20080146669A1, “Novel Chloride Channel Pore Openers” (THE UAB RESEARCH FOUNDATION, priority 2005, published 2008).

Columns and labels:
[1] = target: T1, wild-type CFTR (Homo sapiens, UniProt P13569); assay: Macroscopic currents in excised patches from wild-type CFTR-transfected HEK-293T cells; assay type: biochemical; set-up: expressed in transfected cells; host or cells: HEK-293T, transient (Lipofectamine); settings: 10 μM; 1.5 mM Mg-ATP and 110 U/ml PKA
Experimental: (§1) Cell culture DNA constructs and transfections. Baby hamster kidney (BHK) cells stably expressing wild type human CFTR (BHK-CFTR) were provided by J. Hanrahan (McGill University). BHK-CFTR cells were cultured in Dulbecco's modified Eagle's medium (DMEM (Mediatech)) supplemented with 5% fetal bovine serum (FBS) and 1 mM penicillin-streptomycin. The growth media for the BHK-CFTR cells also contained 0.5 mM methotrexate to maintain selection for CFTR-expressing cells (22). HEK-293T cells were transiently transfected with wild-type or mutant CFTR cDNA using the Lipofectamine transfection kit following manufacturer's recommendations (Invitrogen, Corp). HEK-293T cells were cultured in DMEM. All cells were grown on plastic coverslips for patch clamp recording and were used 2-3 days post-seeding. Electrophysiology and data analysis. Macroscopic and multi-channel currents were recorded in the excised, inside-out configuration. Patch pipettes were pulled from Corning 8161 glass to tip resistances of […] (macroscopic recordings) or 8-10 mOhm (micropatch studies). CFTR channels were activated following patch excision by exposure of the cytoplasmic face of the patch to catalytic subunit of protein kinase A (PKA; 110 U/ml; Promega) and Mg-ATP (1.5 mM). CFTR currents were recorded in symmetrical solution containing (in mM): 140 N-methyl-D-glucaniine-Cl, 3 MgCl2, 1 EGTA and 10 TES. […]

[2] = system: CFTR-minus cells; assay: Currents across patches excised from CFTR-minus (untransfected) cells; assay type: biochemical
Experimental: (§2) Cell culture DNA constructs and transfections. Baby hamster kidney (BHK) cells stably expressing wild type human CFTR (BHK-CFTR) were provided by J. Hanrahan (McGill University). BHK-CFTR cells were cultured in Dulbecco's modified Eagle's medium (DMEM (Mediatech)) supplemented with 5% fetal bovine serum (FBS) and 1 mM penicillin-streptomycin. The growth media for the BHK-CFTR cells also contained 0.5 mM methotrexate to maintain selection for CFTR-expressing cells (22). HEK-293T cells were transiently transfected with wild-type or mutant CFTR cDNA using the Lipofectamine transfection kit following manufacturer's recommendations (Invitrogen, Corp). HEK-293T cells were cultured in DMEM. All cells were grown on plastic coverslips for patch clamp recording and were used 2-3 days post-seeding. Electrophysiology and data analysis. Macroscopic and multi-channel currents were recorded in the excised, inside-out configuration. Patch pipettes were pulled from Corning 8161 glass to tip resistances of […] (macroscopic recordings) or 8-10 mOhm (micropatch studies). CFTR channels were activated following patch excision by exposure of the cytoplasmic face of the patch to catalytic subunit of protein kinase A (PKA; 110 U/ml; Promega) and Mg-ATP (1.5 mM). CFTR currents were recorded in symmetrical solution containing (in mM): 140 N-methyl-D-glucaniine-Cl, 3 MgCl2, 1 EGTA and 10 TES. The pH was adjusted to 7.3. Macroscopic currents were evoked using a ramp protocol from +80 to −80 mV with a 10 sec time period. Patches were held at −80 mV or +80 mV for micropatch (multichannel) recordings. All patch clamp experiments were performed at 21-23° C. Signals from macroscopic and single channel recording were filtered at 20 and 200 Hz, respectively. Data acquisition and analysis were performed using pCLAMP8 and pCLAMP9 software (Axon Instruments). Curve fitting for kinetic analysis was performed using Microcal Origin software. Averaged data are presented as mean +/−SEM. Statistical comparisons were made by performing unpaired t-tests unless otherwise indicated. Ussing Chamber Experiments-CFBE41o epithelial cells stably transfected with ΔF508-CFTR or transiently transfected with wild-type CFTR were cultured as electrically resistive monolayers and assayed in Ussing chambers as described (16). ΔF508-CFTR-expressing monolayers were grown at 27° C. for 2-3 days to enhance the surface expression of this temperature-sensitive mutant. A serosal-to-mucosal Cl^− gradient (120 to 1.2 mM) was imposed, followed by amiloride addition (100 μM) to block Na^+ currents. Compounds were added to both chambers at the indicated concentrations. A 3-mV voltage pulse was imposed every 100 s to monitor transepithelial resistance.

[3] = Solubility limit on achievable dose; assay type: physicochemical; settings: 200-400 μM doses impossible to achieve
[4] = system: parental CFBE41o- monolayers; assay: Ussing chamber transepithelial currents, parental CFBE41o- monolayers; assay type: cell-based, human; settings: n=6, data not shown
Experimental: as §1

[5] = target: T2, ΔF508-CFTR (Homo sapiens, UniProt P13569, DEL508-508); assay: Macroscopic currents in excised patches from temperature-corrected HEK-293T cells expressing ΔF508-CFTR; assay type: biochemical
T2 construct: expressed in transfected cells; host or cells: HEK-293T, transient; grown at 28° C. for 24 hrs
T2 sequence (P13569 with tags, fused parts or gaps DEL508-508): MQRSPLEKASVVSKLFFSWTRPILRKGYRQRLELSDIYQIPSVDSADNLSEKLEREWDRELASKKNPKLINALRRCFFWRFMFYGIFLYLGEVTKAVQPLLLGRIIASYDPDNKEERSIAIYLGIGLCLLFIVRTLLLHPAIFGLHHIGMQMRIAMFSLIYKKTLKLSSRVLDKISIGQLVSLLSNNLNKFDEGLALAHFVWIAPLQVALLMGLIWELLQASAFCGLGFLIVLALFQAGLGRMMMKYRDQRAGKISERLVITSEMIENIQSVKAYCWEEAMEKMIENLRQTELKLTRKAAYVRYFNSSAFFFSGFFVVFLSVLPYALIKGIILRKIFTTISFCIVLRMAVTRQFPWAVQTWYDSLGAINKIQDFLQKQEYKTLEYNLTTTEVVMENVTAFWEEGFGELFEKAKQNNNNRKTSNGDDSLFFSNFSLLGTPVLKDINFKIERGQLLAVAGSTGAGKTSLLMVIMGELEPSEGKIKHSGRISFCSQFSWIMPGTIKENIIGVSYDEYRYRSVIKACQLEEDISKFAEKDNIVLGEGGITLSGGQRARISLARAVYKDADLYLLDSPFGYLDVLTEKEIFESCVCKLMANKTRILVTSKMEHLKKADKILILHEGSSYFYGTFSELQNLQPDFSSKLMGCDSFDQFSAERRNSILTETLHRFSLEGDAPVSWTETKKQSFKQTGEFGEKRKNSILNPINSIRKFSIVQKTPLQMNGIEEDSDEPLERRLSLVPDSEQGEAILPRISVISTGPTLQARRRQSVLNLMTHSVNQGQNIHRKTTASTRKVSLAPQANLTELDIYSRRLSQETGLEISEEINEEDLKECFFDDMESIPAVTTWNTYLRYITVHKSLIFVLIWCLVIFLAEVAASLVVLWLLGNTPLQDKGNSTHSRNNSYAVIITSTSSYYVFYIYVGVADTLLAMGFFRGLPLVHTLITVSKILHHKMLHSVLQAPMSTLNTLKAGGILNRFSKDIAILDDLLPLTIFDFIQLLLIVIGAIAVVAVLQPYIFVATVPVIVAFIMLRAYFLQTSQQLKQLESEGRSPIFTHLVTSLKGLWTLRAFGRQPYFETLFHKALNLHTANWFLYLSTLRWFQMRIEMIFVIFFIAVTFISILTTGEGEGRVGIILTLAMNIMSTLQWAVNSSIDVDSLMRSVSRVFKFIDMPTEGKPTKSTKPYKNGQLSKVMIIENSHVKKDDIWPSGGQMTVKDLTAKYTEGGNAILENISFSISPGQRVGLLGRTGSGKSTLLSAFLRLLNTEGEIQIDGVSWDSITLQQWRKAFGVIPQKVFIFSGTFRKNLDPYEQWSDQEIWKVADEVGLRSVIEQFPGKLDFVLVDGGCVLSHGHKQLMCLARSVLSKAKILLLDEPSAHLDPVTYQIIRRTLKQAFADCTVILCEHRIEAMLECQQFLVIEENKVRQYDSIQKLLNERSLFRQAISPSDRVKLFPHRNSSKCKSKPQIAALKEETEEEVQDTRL
Experimental: as §2

[6] = target: T2, ΔF508-CFTR; assay: Ussing chamber transepithelial chloride currents, temperature-corrected ΔF508-CFTR CFBE41o- monolayers; assay type: cell-based
Experimental: as §2

[7] = target: T1, wild-type CFTR; assay: Ussing chamber transepithelial chloride currents, wild type CFTR-expressing CFBE41o- monolayers; assay type: cell-based; set-up: expressed in transfected cells; host or cells: HEK-293T, transient (Lipofectamine); settings: 120 nM to 12 μM
Experimental: as §1

T1 sequence (P13569 whole entry): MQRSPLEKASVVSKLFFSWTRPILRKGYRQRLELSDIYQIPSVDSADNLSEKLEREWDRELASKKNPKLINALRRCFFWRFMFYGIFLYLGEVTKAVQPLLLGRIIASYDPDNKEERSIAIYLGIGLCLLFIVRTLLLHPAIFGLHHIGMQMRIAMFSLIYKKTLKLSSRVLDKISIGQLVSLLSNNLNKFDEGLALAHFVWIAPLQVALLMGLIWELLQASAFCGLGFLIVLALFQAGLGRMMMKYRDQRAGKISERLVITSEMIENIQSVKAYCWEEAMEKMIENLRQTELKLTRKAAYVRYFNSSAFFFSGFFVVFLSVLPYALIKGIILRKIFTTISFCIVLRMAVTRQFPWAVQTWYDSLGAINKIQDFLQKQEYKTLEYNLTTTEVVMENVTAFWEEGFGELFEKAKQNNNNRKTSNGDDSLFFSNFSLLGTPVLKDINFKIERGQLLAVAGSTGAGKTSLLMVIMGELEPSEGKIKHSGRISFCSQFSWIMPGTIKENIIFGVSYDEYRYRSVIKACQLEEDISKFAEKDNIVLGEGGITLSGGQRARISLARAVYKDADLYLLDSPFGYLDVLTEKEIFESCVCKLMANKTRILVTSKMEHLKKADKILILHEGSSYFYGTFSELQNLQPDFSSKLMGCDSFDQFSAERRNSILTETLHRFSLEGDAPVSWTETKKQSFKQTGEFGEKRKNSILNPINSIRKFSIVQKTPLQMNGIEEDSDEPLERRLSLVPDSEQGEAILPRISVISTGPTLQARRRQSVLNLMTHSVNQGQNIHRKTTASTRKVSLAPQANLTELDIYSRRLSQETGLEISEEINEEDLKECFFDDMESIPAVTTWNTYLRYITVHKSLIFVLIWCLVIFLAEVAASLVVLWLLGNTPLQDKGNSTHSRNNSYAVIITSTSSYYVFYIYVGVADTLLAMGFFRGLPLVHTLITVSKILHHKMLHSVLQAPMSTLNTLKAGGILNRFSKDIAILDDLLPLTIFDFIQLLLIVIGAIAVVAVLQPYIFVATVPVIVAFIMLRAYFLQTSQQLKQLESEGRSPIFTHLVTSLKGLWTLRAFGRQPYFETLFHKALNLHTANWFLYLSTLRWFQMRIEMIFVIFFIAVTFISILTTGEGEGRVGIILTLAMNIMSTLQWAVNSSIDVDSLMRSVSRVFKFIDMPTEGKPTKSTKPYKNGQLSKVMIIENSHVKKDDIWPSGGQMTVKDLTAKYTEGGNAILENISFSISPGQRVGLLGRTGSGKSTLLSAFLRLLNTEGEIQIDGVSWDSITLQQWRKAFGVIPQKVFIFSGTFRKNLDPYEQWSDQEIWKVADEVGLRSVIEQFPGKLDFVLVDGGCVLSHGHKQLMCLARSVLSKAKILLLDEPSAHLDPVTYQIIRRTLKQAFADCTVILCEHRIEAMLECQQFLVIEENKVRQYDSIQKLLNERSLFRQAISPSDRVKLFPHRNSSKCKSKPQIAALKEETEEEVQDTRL

stimulation of the activity of the wild-type channel [1]: 1.5-2 fold | solubility relative to NPPB [3]: less soluble | increase in ΔF508-CFTR macroscopic currents ([5]; 10 μM, 1.5 mM Mg-ATP and 110 U/ml PKA): 10-15 fold | effect on ΔF508-CFTR macroscopic currents ([5]; 10 μM, high PKA 110 U/ml without PKI): dramatically stimulated | effect on ΔF508-CFTR channel activity in the absence of active kinase ([5]; added after PKI): markedly stimulated | effect on transepithelial currents without cAMP agonist ([6]; 120 nM to 12 μM): stimulated the transepithelial currents | stimulated transepithelial current with H89 ([6]; prior treatment with H89 100 μM, n=4, monolayer type (wild-type or ΔF508) not stated): 5.5+/−1.3 μA/cm^2 | stimulated transepithelial current without H89 ([6]; −H89, n=4, monolayer type (wild-type or ΔF508) not stated): 23.3+/−2.0 μA/cm^2 | effect on transepithelial currents without cAMP agonist [7]: stimulated the transepithelial currents
SMILES: NC(=O)c1cc([N+](=O)[O-])ccc1NCCCc1ccccc1 [NPPB-Am]
effect on currents across membrane patches excised from CFTR-minus cells ([2]; data not shown): no effect | effect on currents across a patch from untransfected HEK-293T cells ([2]; untransfected HEK-293T): neither | increase in transepithelial current [4]: 1.1+/−2.7 μA/cm^2 | potentiation of the forskolin effect on ΔF508-CFTR transepithelial currents ([6]; 1 μM compound with 1 μM forskolin, N=8-12): markedly potentiated the effect of forskolin
